# Where two headings read alike, the source gives them in different places.
# Tests used:
# dandelion = test: Greenhouse synergy test MBI-005 + turf herbicides (Example 11); format: in vivo; settings: 14 days
# Description: (§1) The common turf weeds dandelion and plantain were used in testing for synergy between MBI-005 and 2, 4- or dicamba, two common turf herbicides.
# (§2) There were 3 replicates per treatment which were sprayed with approximately ⅔ ml per replicate. The treatments were completely randomized and kept in a greenhouse at 25° C. The efficacy was rated at 7 and 14 days post treatment.
# plantain = test: as above; format: in vivo; settings: 14 days
# Description: as §1, §2
# crabgrass [1] = test: Post-emergent MBI-005 + Atrazine on crabgrass (Example 17); format: in vivo; settings: 35% Atrazine Label Rate
# Description: (§3) Ten seedlings in 2.5 cm square pots containing plant growth mix were sprayed with two suboptimal rates of MBI-005, and 35% of the atrazine label rate (0.3 gallons/A), or a combination thereof, at a volume of 40 gal/A using a cabinet track sprayer. Negative controls were sprayed with water. Pots were randomly placed in a growth room at 25° C. and 50% RH, and watered as necessary. Treatments were replicated five times and evaluated at 7 and 14 days for visual % damage, with 0% indicating no damage and 100% indicating plant death.
# (§4) Synergy was calculated as the ratio of observed (E) to expected (E/Ee) percent control using Colby's formula.
# barnyard grass [2] = test: Greenhouse spray test bialaphos + MBI-005 (Example 10); format: in vivo
# Description: The MBI-005 and bialaphos were prepared at various concentrations either as single ingredients or in combination with bialaphos. The treatments were applied at approximately ⅔ ml per replicate with a hand-help spray nozzle to barnyard grass or sedge. There were 3 replicates per treatment which were randomized after spray and were kept in a greenhouse at 25° C. for evaluation of phytotoxicity (% control).
# [3] = system: small-flower umbrella sedge; test: Field study, 1-sq foot plots (Example 5); format: in vivo; settings: 14 days after treatment
# Description: (§5) The combined effect of thaxtomin A and two commercial herbicides (Bipyribac-sodium formulated as Regiment and Lemongrass oil formulated as GreenMatch EX) on small-flower umbrella sedge and watergrass is tested in a field study using small (1-sq foot) plots. All single product treatments and tank mix combinations were sprayed at 57 gal per acre. Means in each column marked with the same letter in Table 2 are not statistically different from each other at p<0.05
# watergrass = test: Field study, 1-sq foot plots (Example 5); format: in vivo; settings: 14 days after treatment
# Description: as §5
# barnyard grass [4] = test: Greenhouse synergy test MBI-005 + commercial herbicides (Example 11); format: in vivo; settings: 14 days
# Description: (§6) The test species barnyard grass, ragweed, sedge, and broad-leaf mustard were used for the valuation of synergy between MBI-005 and the rice herbicides clomazone, penoxsulam, cyhalofop, fenoxaprop-p-ethyl, bispyribac-sodium, thiobencarb, and propanil.
# as §2
# broad-leaf mustard = test: as above; format: in vivo; settings: 14 days
# Description: as §6, §2
# ragweed = test: as above; format: in vivo; settings: 14 days
# Description: as §6
# (§7) […] other herbicides commonly used for field crops, glyphosate, glufosinate, synthetic version of bialaphos, and mesotrione were also tested for synergy with MBI-005 on crabgrass and ragweed.
# as §2
# barnyard grass [5] = test: Post-emergent MBI-005 + rice herbicides on barnyard grass (Example 18); format: in vivo; settings: 14 days
# Description: as §3, with “to full coverage” for “with two suboptimal rates of MBI-005, and 35% of the atrazine label rate (0.3 gallons/A), or a combination thereof, at a volume of 40 gal/A”, “hand” for “cabinet track”, “three” for “five”
# Synergistic effect were noted between MBI-005 and all three rice herbicides, 14 days after treatment. Synergy was calculated as the ratio of observed (E) to expected (E/Ee) percent control using Colby's formula.
# [6] = system: small flower umbrella sedge; test: Post-emergent MBI-005 + rice herbicides on smallflower umbrella sedge (Example 19); format: in vivo; settings: 14 days
# Description: Twenty seedlings in 2.5 cm square pots containing plant growth mix were sprayed to full coverage using a hand sprayer. Negative controls were sprayed with water. Pots were randomly placed in a growth room at 25° C. and 50% RH, and watered as necessary. Treatments were replicated three times and evaluated at 7 and 14 days for visual % damage, with 0% indicating no damage and 100% indicating plant death.
# as §4
# crabgrass [7] = test: Crabgrass seed germination, MBI-005 + m-Tyrosine (Example 15); format: in vivo; settings: 7 DAT; for AVG No. germinated: forty-five seeds
# Description: Forty-five seeds were placed on a ring of blotter paper inside a 3 cm petri dish, covered with 10 cm^3 of inert baked clay particle media and supplied with 7 ml of 0.035 mg/ml MBI-005, a m-Tyrosine concentration, or a combination of MBI-005 and m-Tyrosine (Table 14). Water was used as a negative control. Petri dishes were randomly placed in a growth room at 25° C. and 50% RH. Treatments were replicated three times and germinated seeds were counted 7 days after application; water was added as necessary to maintain moisture levels inside each petri dish.
# Synergy was calculated as the ratio of observed (E) to expected (E/Ee) reduction in germination using Colby's formula.
# redstem; Ammania spp. = test: Greenhouse study thaxtomin A / sarmentine (Example 9); format: in vivo; settings: 25 days after treatment
# Description: (§8) A strain of S. acidiscabies was grown in oat bran broth for 5 days (25° C., 200 rpm). The whole cell broth was extracted using XAD resin, and the dried crude extract was resuspended in 4% ethanol and 0.2% non-ionic surfactant at a concentration of 10 mg/mL. The diluted extracts containing 0.2 and 0.4 mg thaxtomin A per mL were tested on three weed species (redstem; Ammania spp., smallflower umbrella sedge; Cyperus difformis and sprangletop: Leptochloa uninervia). Other treatments included sarmentine at 2.5 and 5.0 mg/mL, and a combination treatment containing 0.2 mg thaxtomin A and 2.5 mg sarmentine per mL. Each treatment was applied in three replicates. Treated plants were kept in a greenhouse under 12 h light/12 h dark conditions.
# [8] = system: smallflower umbrella sedge; Cyperus difformis; test: as above; format: in vivo; settings: 25 days after treatment
# Description: as §8
# [9] = system: sprangletop: Leptochloa uninervia; test: as above; format: in vivo; settings: 25 days after treatment
# Description: as §8
# sedge = test: Greenhouse synergy test MBI-005 + commercial herbicides (Example 11); format: in vivo; settings: 14 days
# Description: as §6, §2
# crabgrass [10] = test: Greenhouse synergy test MBI-005 + field crop herbicides (Example 11); format: in vivo; settings: 14 days
# Description: as §7, §2
# barnyard grass [11] = test: Post-emergent MBI-005 + Propanil on barnyard grass (Example 20); format: in vivo; settings: Echinochloa crus-galli, post-emergence, 336 h; 25% Propanil (of label rate); 14 days; read-out: Observed Average % Efficacy (E)
# Description: Negative controls were sprayed with water. Pots were randomly placed in a growth room at 25° C. and 50% RH, and watered as necessary. Treatments were replicated three times and evaluated at 7 and 14 days for visual % damage, with 0% indicating no damage and 100% indicating plant death.
# as §4
# [12] = in vivo; cited from earlier work
# [13] = system: Smallflower umbrella sedge; test: Post-emergent MBI-005 + Thiobencarb on Smallflower umbrella sedge (Example 21); format: in vivo; settings: post-emergence, 336 h, 14 days, read-out: Observed Average % Efficacy (E)
# Description: […] Negative controls were sprayed with water. Pots were randomly placed in a growth room at 25° C. and 50% RH, and watered as necessary. Treatments were replicated three times and evaluated at 7 and 14 days for visual % damage, with 0% indicating no damage and 100% indicating plant death.
# as §4
# [14] = Bispyribac-sodium 13.3% v/v of label rate
smiles,measurement,setting,value
"O=C(O)COc1ccc(Cl)cc1Cl [2,4-D, reference compound]",% Control Product,"dandelion; 2, 4-D 0.176 mg/mL",25.0%
same,% Control Product,"plantain; 2, 4-D 2.340 mg/mL",50.0%
"CCNc1nc(Cl)nc(NC(C)C)n1 [Atrazine, reference compound]",AVG E (visual % damage),crabgrass [1]; 7DAT,11.9%
same,AVG/ E (visual % damage),crabgrass [1]; 14DAT,8.8%
C[C@H](NC(=O)[C@H](C)NC(=O)[C@@H](N)CCP(C)(=O)O)C(=O)O [Bialaphos],% Control (14 days),"barnyard grass [2]; Table 6, Bialaphos 0.089 mg/mL",0.0 a %
same,% Control (14 days),"barnyard grass [2]; Table 6, Bialaphos 0.178 mg/mL",0.0 a %
same,% Control (14 days),"barnyard grass [2]; Table 6, Bialaphos 0.356 mg/mL",0.0 a %
same,% Control (14 days),"barnyard grass [2]; Table 6, Bialaphos 0.534 mg/mL",0.0 a %
same,% Control (14 days),"barnyard grass [2]; Table 6, Bialaphos 0.712 mg/mL",0.0 a %
same,% Control (14 days),"barnyard grass [2]; Table 6, Bialaphos 0.890 mg/mL",1.3 ab %
same,% Control (14 days),"barnyard grass [2]; Table 6, Bialaphos 1.068 mg/mL",5.0 abc %
same,% Control (14 days),"barnyard grass [2]; Table 7, Bialaphos 0.18 mg/mL",6.7 bc %
same,% Control (14 days),"barnyard grass [2]; Table 7, Bialaphos 0.53 mg/mL",3.3 ab %
same,% Control (14 days),"barnyard grass [2]; Table 7, Bialaphos 1.07 mg/mL",10.0 c %
same,% Control (14 days),"barnyard grass [2]; Table 7, Bialaphos 1.07 mg/mL, listed as bialaphos",10%
same,% Control (7 days),"barnyard grass [2]; Table 8, Bialaphos 1.1 mg/mL",5.0 ab %
same,% Control (14 days),"barnyard grass [2]; Table 8, Bialaphos 1.1 mg/mL",3.7 a %
same,% Control (7 days),"barnyard grass [2]; Table 8, Bialaphos 1.4 mg/mL",10.8 b %
same,% Control (14 days),"barnyard grass [2]; Table 8, Bialaphos 1.4 mg/mL",23.3 b %
same,% Control (7 days),"barnyard grass [2]; Table 8, Bialaphos 1.8 mg/mL",62.5 c %
same,% Control (14 days),"barnyard grass [2]; Table 8, Bialaphos 1.8 mg/mL",66.7 c %
COc1cc(OC)nc(Oc2cccc(Oc3nc(OC)cc(OC)n3)c2C(=O)O)n1 [Bispyribac-sodium],Sedge control (%),[3]; Bispyribac-sodium 12 g/acre,87.5a %
same,Sedge control (%),[3]; Bispyribac-sodium ½ (6 g/acre),47.5c %
same,Watergrass control (%),watergrass; Bispyribac-sodium 12 g/acre,32.5a %
same,Watergrass control (%),watergrass; Bispyribac-sodium ½ (6 g/acre),15c %
same,% Control Product,barnyard grass [4]; bispyribac-sodium 0.032 mg/mL,0.0%
same,% Control Product,broad-leaf mustard; bispyribac-sodium 0.0216 mg/mL,53.3%
same,% Control Product,ragweed; bispyribac-sodium 0.0216 mg/mL,5.0%
same,% control chemical AI,barnyard grass [5]; [14],6.7%
same,% control AI,[6]; [14],37.5%
"N[C@@H](Cc1cccc(O)c1)C(=O)O [M-tyrosine, m-Tyrosine]",E (% controlled compared to UTC),crabgrass [7]; .22 mg/mL M-tyrosine,8.3%
same,AVG No. germinated,crabgrass [7]; .22 mg/mL M-tyrosine,40.7
same,E (% controlled compared to UTC),crabgrass [7]; .44 mg/mL M-tyrosine,0.8%
same,AVG No. germinated,crabgrass [7]; .44 mg/mL M-tyrosine,44.0
CCCCC/C=C/C=C/C(=O)N1CCCC1 [Sarmentine],Control of redstem (%),redstem; Ammania spp.; Sarmentine 2.5 mg/mL,0a %
same,Control of redstem (%),redstem; Ammania spp.; Sarmentine 5.0 mg/mL,2.5ab %
same,Control of sedge (%),[8]; Sarmentine 2.5 mg/mL,8.3a %
same,Control of sedge (%),[8]; Sarmentine 5.0 mg/mL,6.7a %
same,Control of sprangletop (%),[9]; Sarmentine 2.5 mg/mL,80.0c %
same,Control of sprangletop (%),[9]; Sarmentine 5.0 mg/mL,92.3d %
CC1(C)CON(Cc2ccccc2Cl)C1=O [clomazone],% Control Product,barnyard grass [4]; clomazone 0.513 mg/mL,37.5%
same,% Control Product,broad-leaf mustard; clomazone 0.513 mg/mL,25.0%
same,% Control Product,sedge; clomazone 0.501 mg/mL,0.0%
same,% control chemical AI,barnyard grass [5]; Clomazone 13.3 % v/v of label rate,37.50%
same,% control AI,[6]; Clomazone 13% v/v of label rate,0.0%
"COc1c(Cl)ccc(Cl)c1C(=O)O [dicamba, reference compound]",% Control Product,dandelion; dicamba 0.121 mg/mL,45.8%
same,% Control Product,plantain; dicamba 6.025 mg/mL,50.0%
CCOC(=O)[C@@H](C)Oc1ccc(Oc2nc3ccc(Cl)cc3o2)cc1 [fenoxaprop-p-ethyl],% Control Product,barnyard grass [4]; fenoxaprop-p-ethyl 0.006 mg/mL,91.7%
same,% Control Product,broad-leaf mustard; fenoxaprop-p-ethyl 0.006 mg/mL,0.0%
same,% Control Product,sedge; fenoxaprop-p-ethyl 0.116 mg/mL,0.0%
CP(=O)(O)CCC(N)C(=O)O (centres unmarked) [glufosinate],% Control Product,ragweed; glufosinate 0.194 mg/mL,22.5%
same,% Control Product,crabgrass [10]; glufosinate 0.151 mg/mL,83.3%
O=C(O)CNCP(=O)(O)O [glyphosate],% Control Product,ragweed; glyphosate 2.198 mg/mL,15.0%
same,% Control Product,crabgrass [10]; glyphosate 0.754 mg/mL,45.8%
CS(=O)(=O)c1ccc(C(=O)C2C(=O)CCCC2=O)c([N+](=O)[O-])c1 [mesotrione],% Control Product,ragweed; mesotrione 0.96 mg/mL,25.0%
same,% Control Product,crabgrass [10]; mesotrione 0.24 mg/mL,62.5%
COc1cnc(OC)n2nc(NS(=O)(=O)c3c(OCC(F)F)cccc3C(F)(F)F)nc12 [penoxsulam],% Control Product,barnyard grass [4]; penoxsulam 0.051 mg/mL,25.0%
same,% Control Product,sedge; penoxsulam 0.047 mg/mL,66.7%
same,% control chemical AI,barnyard grass [5]; Penoxsulam 13.0 % v/v of label rate,25.0%
same,% control AI,[6]; Penoxsulam 13% v/v of label rate,33.3%
CCC(=O)Nc1ccc(Cl)c(Cl)c1 [propanil],% Control Product,barnyard grass [4]; propanil 0.365 mg/mL,32.5%
same,% Control Product,broad-leaf mustard; propanil 0.036 mg/mL,1.67%
same,% control AI,[6]; Propanil .5% v/v of label rate,62.5%
same,Observed average % efficacy (visual damage),barnyard grass [11],32.5%
"CN1C(=O)[C@H](Cc2c[nH]c3cccc([N+](=O)[O-])c23)N(C)C(=O)[C@@H]1Cc1ccccc1 [thaxtomin D, reference compound]","activity as pre and post emergent, non-systemic herbicides",[12],marked activity
CCN(CC)C(=O)SCc1ccc(Cl)cc1 [thiobencarb],% Control Product,barnyard grass [4]; thiobencarb 1.743 mg/mL,41.7%
same,% Control Product,broad-leaf mustard; thiobencarb 1.743 mg/mL,10.0%
same,% Control Product,sedge; thiobencarb 3.15 mg/mL,58.3%
same,% control AI,[6]; Thiobencarb 25% v/v of label rate,41.7%
same,Observed average % efficacy,"[13]; first series, 25% Thiobencarb",41.7%
same,Observed average % efficacy,"[13]; second series, 15% Thiobencarb",25%
